# Values quoted from earlier work as cited in patent publication US20210400960A1, “INSECT REPELLENT COMPOSITION” (Mother Earth Dermatics (MED) GMBH, priority 2018, published 2021).
# Tested on: insects
# Details: depending on the concentration
smiles,measurement,value
"CCN(CC)C(=O)c1cccc(C)c1 [DEET, N,N-diethyl-m-toluamide]",Duration of repellent effect,6 to 8 h
